According to patent publication US9918948B2, “Methods and compositions for treating symptoms associated with post-traumatic stress disorder using cyclobenzaprine” (TONIX PHARMA HOLDINGS LIMITED, priority 2009, dated 2018):
Read-outs that look alike come from different tables or passages of the source.

Tests used:
PTSD symptoms [1] = conditions: 1 to 4 mg orally at bedtime, alone or with sertraline or prazosin; one to three months after the trauma
From the text: (§1) At this point the usual natural history of the disease has progressed to the point where patients typically experience recurrent nightmares associated with their traumatic events. […] In addition patients at this stage in the evolution of their disorder have a constellation of daytime symptoms consisting of hyperarousal, hypervigilance, exaggerated startle, and other signs of overactive vigilance behaviors. Also, at this point patients begin to engage in avoidant behaviors such that they actively avoided people and circumstances that might trigger memories of the traumatic event. Lastly, patients begin to experience daytime reexperiencing of their traumatic events in the form of flashbacks. […] These include hyperarousal, hypervigilance, exaggerated startle, and avoidant behavior.

PTSD symptoms [2] = conditions: 1 to 4 mg orally at bedtime, alone or with sertraline or prazosin; PTSD present for greater than three months
From the text: as §1, with “In patients with well-established PTSD that has been present for greater than three months. At” for “At”, “nightmares and daytime flashbacks” for “nightmares”, “with highly vivid memories of the” for “with their”, “traumatic event.” for “traumatic events.”

PTSD symptoms [3] = conditions: 1 to 4 mg orally at bedtime, alone or with sertraline or prazosin, started within one week of the trauma
fibromyalgia patients = conditions: 120 fibromyalgia patients, 10 to 40 mg, 12-week period; cited from earlier work
[4] = tested on: sleep disturbance in PTSD; conditions: administered at bedtime; cited from earlier work

Row | SMILES | daytime symptoms not associated with sleep (hyperarousal, hypervigilance, exaggerated startle, avoidant behavior) (PTSD symptoms [1]) | sleep associated symptomatology (nightmares, distress, insomnia, daytime fatigue, cognitive function) (PTSD symptoms [1]) | daytime symptoms not associated with sleep (hyperarousal, hypervigilance, exaggerated startle, avoidant behavior) (PTSD symptoms [2]) | sleep associated symptomatology (nightmares, distress, insomnia, daytime fatigue, cognitive function) (PTSD symptoms [2]) | avoiding behavior or hyperarousal symptoms (PTSD symptoms [3]) | daytime fatigue compared to untreated patients (PTSD symptoms [3]) | sleep quality compared to untreated patients (PTSD symptoms [3]) | frequency of nightmares or flashbacks (PTSD symptoms [3]; three-month interval) | pain score (fibromyalgia patients) | quality of sleep (fibromyalgia patients) | total number of tender points and muscle tightness (fibromyalgia patients) | sleep [4]
1 | CN(C)CCC=C1c2ccccc2C=Cc2ccccc21 [cyclobenzaprine, 3-(5H-dibenzo[a,d]cyclohepten-5-ylidene)-N,N-dimethyl-1-propanamine] | greatly reduced or eliminated | significant improvements | greatly reduced or eliminated | significant improvements | No avoiding behavior or hyperarousal symptoms develop | diminished | substantially better in quality | declines eventually approaching zero | significantly improved | significantly improved | reduction | 
2 | COc1cc2nc(N3CCN(C(=O)c4ccco4)CC3)nc(N)c2cc1OC [prazosin] |  |  |  |  |  |  |  |  |  |  |  | improves sleep
